Data reported in patent publication US9006454B2, “Dihydroorotate dehydrogenase inhibitors” (Merck Serono S.A., priority 2009, dated 2015).

Tests used:
L1210 murine leukemia = conditions: cited from earlier work
colon 38 tumor = conditions: murine model colon 38 tumor; cited from earlier work
DHODH [1] = molecular target: T1, DHODH (Homo sapiens (Human), UniProt Q02127); conditions: cited from earlier work
Target sequence in this assay (Q02127 whole entry, species assumed): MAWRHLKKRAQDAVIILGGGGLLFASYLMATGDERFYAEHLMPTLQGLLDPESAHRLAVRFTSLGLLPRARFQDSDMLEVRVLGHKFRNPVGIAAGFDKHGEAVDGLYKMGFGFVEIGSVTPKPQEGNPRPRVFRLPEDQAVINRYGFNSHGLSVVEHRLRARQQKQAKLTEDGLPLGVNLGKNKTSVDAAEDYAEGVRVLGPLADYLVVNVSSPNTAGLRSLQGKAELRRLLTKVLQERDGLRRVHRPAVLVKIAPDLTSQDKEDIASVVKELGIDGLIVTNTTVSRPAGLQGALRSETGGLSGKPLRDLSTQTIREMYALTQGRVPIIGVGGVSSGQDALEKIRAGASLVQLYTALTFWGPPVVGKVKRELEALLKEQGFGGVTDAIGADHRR

[2] = test system: spleen colony-forming units (CFU); conditions: cited from earlier work
[3] = test system: experimental allergic encephalomyelitis (EAE); conditions: oral, from 10 days after inoculation; Teriflunomide 3 and 10 mg/kg, dexamethasone 1 mg/kg; cited from earlier work
[4] = test system: multiple sclerosis with relapses; conditions: once-daily oral 7 and 14 mg; cited from earlier work
DHODH [5] = molecular target: T1, DHODH; assay: DHODH activity assay (coupled enzyme assay, DCIP reduction, absorbance at 610 nm); type: biochemical; conditions: for inhibition at 10 µM: compound at 10 uM, read-out: inh @ 10 uM hDHODH (%)
Target sequence in this assay (Q02127 whole entry): as the sequence (Q02127 whole entry, species assumed) above

Jurkat cells = assay: Measurement of cell proliferation (Jurkat cell), XTT assay; type: cell-based; conditions: Homo sapiens, Jurkat; compound at 1 uM; read-out: % inh Jurkat_cells @ 1 uM (%)
Procedure, shortened: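 Jurkat T cells, 100,000 per well in RPMI with 10% FBS, exposed 72 h at 37 °C to serial compound dilutions (typically from 10 μM, half-log steps, triplicate) at 0.25–0.5% DMSO. Viability by XTT/PMS, A465 after 2 h, media background subtracted, untreated cells as 100%; EC50 from curve fit.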

inhibition at 10 µM (DHODH [5]) [%]	Compound	inhibition at 1 µM (Jurkat cells) [%]	also measured
–	Cc1c(-c2ccc(-c3ccccc3F)cc2)nc2ccc(F)cc2c1C(=O)O [Brequinar, 6-Fluoro-2-(2′-fluoro[1,1′-biphenyl]-4-yl)-3-methyl-4-quinolinecarboxylic Acid]	–	anticancer activity towards L1210 murine leukemia (L1210 murine leukemia): exhibits an anticancer activity; potentiation of 5-fluorouracil antitumor activity (colon 38 tumor): potentiates 5-fluorouracil antitumor activity
–	C/C(O)=C(\C#N)C(=O)Nc1ccc(C(F)(F)F)cc1 [Teriflunomide]	–	fold greater inhibitor of DHODH than of protein tyrosine kinase (DHODH [1]): 100-1,000 fold; CFU cycling [2]: inhibited CFU cycling; onset of disease and symptom severity in EAE [3]: significant delay in the onset of disease and in symptom severity; number of unique active lesions compared to placebo [4]: reduced number of unique active lesions
–	C[C@@H]1C[C@H]2[C@@H]3CCC4=CC(=O)C=C[C@]4(C)[C@@]3(F)[C@@H](O)C[C@]2(C)[C@@]1(O)C(=O)CO [dexamethasone]	–	onset of disease and symptom severity in EAE [3]: significant delay in the onset of disease and in symptom severity
48.5	Cc1cc(C(=O)O)c2[nH]c(-c3ccc(-c4cccc(OC5CCNCC5)c4)cc3)nc2c1 [I155]	14.2	–
13.7	COc1cccc(-c2ccc(-c3nc4c(C(=O)O)cccc4[nH]3)cc2)c1 [I11]	9.4	–
29.6	O=C(O)c1cccc2nc(-c3ccc(-c4ccccn4)cc3)[nH]c12 [I73, 2-(4-Pyridin-2-yl-phenyl)-3H-benzoimidazole-4-carboxylic acid]	13.6	–
92.7	Cc1cc(C(=O)O)c2[nH]c(-c3ccc(-c4ccc(F)cc4F)cc3F)nc2c1 [I31]	55.5	IC50 (DHODH [5]): 1010 nM
